# Test results: the kinase profiling compilation of Christmann-Franck et al. (2016)
# Assays:
# Assay in all cases: KINOMEscan competition binding
# Details in all cases: compound 10.0 µM
# [1] = biological target: MAP4K1 (human) (UniProt Q92918)
# [2] = biological target: RPS6KA5 KD1 (human) (UniProt O75582)
# [3] = biological target: MAPK15 (human) (UniProt Q8TD08)
# [4] = biological target: STK32B (human) (UniProt Q9NY57)
# [5] = biological target: NTRK3 (human) (UniProt Q16288)
# [6] = biological target: TEC (human) (UniProt P42680)
# [7] = biological target: LTK (human) (UniProt P29376)
# [8] = biological target: JAK2 JH1 catalytic (human) (UniProt O60674)
# [9] = biological target: PRKCH (human) (UniProt P24723)
# [10] = biological target: TAOK3 (human) (UniProt Q9H2K8)
# [11] = biological target: AKT2 (human) (UniProt P31751)
# [12] = biological target: ITK (human) (UniProt Q08881)
# [13] = biological target: FGFR3 (human) (UniProt P22607)
# [14] = biological target: HCK (human) (UniProt P08631)
# [15] = biological target: MAPK8 (human) (UniProt P45983)
# [16] = biological target: MARK4 (human) (UniProt Q96L34)
# [17] = biological target: SRPK2 (human) (UniProt P78362)
# [18] = biological target: MYLK2 (human) (UniProt Q9H1R3)
# MYLK2 (human), sequence (Q9H1R3 whole entry, looked up): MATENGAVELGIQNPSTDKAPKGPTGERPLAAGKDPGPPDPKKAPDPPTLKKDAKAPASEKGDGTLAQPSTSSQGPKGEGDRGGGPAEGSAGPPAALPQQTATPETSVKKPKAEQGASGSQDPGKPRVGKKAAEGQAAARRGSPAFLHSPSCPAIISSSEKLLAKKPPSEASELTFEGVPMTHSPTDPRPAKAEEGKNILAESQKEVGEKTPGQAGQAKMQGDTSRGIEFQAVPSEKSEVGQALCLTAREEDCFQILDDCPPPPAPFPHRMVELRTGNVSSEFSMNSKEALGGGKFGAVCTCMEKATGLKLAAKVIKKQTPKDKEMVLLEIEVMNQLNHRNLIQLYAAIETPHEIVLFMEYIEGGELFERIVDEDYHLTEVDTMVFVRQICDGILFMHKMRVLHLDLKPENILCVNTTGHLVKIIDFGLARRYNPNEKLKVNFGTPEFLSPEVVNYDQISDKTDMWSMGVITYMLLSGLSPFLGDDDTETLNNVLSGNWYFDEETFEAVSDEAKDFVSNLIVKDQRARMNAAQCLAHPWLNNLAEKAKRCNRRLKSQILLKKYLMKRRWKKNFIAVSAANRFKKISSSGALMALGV
# [19] = biological target: PRKG1 (human) (UniProt Q13976)
# [20] = biological target: PHKG1 (human) (UniProt Q16816)
# [21] = biological target: CAMK1D (human) (UniProt Q8IU85)
# CAMK1D (human), sequence (Q8IU85 whole entry, looked up): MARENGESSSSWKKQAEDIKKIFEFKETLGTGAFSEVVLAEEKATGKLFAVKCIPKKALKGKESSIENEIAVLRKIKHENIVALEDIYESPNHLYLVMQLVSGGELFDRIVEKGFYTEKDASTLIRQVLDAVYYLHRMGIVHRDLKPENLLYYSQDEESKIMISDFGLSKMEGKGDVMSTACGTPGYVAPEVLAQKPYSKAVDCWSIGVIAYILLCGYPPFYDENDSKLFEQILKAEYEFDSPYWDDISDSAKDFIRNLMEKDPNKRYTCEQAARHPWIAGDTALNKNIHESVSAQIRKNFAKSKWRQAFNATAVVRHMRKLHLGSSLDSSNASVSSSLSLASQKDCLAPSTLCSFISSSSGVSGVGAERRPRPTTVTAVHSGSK
# [22] = biological target: TYK2 JH1 catalytic (human) (UniProt P29597)
# TYK2 JH1 catalytic (human), sequence (P29597 whole entry, looked up): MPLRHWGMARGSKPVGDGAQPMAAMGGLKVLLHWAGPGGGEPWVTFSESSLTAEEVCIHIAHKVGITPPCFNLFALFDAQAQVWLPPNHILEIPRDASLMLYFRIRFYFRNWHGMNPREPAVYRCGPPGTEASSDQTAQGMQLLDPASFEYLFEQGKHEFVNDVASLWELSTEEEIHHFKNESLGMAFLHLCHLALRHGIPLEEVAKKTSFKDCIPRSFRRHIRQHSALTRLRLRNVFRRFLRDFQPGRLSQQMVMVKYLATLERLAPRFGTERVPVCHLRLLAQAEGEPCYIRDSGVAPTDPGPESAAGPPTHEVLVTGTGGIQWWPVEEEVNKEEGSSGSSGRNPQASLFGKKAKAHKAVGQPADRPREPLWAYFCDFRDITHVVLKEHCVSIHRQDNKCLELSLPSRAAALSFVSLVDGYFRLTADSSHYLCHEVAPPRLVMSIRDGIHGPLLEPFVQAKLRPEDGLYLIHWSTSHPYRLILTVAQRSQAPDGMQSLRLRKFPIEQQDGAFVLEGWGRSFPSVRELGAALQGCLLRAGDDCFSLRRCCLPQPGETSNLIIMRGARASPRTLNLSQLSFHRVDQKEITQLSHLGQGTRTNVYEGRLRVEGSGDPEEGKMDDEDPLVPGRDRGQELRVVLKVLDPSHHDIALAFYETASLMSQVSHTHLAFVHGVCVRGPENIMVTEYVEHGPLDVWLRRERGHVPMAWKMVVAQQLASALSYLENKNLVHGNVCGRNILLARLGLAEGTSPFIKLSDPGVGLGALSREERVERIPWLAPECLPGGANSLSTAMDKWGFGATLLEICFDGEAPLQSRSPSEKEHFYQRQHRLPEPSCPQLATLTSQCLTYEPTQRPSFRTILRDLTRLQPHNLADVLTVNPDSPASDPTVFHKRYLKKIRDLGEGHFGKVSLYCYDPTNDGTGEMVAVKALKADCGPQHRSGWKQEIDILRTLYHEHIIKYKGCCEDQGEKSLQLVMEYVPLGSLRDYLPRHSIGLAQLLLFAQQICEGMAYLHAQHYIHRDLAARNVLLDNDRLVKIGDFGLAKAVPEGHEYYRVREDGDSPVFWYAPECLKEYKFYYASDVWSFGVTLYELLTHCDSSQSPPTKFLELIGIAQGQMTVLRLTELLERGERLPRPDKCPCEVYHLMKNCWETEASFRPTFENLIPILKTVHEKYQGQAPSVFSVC
# [23] = biological target: TNK1 (human) (UniProt Q13470)
# [24] = biological target: SIK1 (human) (UniProt P57059)
# [25] = biological target: MAP4K2 (human) (UniProt Q12851)
# MAP4K2 (human), sequence (Q12851 whole entry, looked up): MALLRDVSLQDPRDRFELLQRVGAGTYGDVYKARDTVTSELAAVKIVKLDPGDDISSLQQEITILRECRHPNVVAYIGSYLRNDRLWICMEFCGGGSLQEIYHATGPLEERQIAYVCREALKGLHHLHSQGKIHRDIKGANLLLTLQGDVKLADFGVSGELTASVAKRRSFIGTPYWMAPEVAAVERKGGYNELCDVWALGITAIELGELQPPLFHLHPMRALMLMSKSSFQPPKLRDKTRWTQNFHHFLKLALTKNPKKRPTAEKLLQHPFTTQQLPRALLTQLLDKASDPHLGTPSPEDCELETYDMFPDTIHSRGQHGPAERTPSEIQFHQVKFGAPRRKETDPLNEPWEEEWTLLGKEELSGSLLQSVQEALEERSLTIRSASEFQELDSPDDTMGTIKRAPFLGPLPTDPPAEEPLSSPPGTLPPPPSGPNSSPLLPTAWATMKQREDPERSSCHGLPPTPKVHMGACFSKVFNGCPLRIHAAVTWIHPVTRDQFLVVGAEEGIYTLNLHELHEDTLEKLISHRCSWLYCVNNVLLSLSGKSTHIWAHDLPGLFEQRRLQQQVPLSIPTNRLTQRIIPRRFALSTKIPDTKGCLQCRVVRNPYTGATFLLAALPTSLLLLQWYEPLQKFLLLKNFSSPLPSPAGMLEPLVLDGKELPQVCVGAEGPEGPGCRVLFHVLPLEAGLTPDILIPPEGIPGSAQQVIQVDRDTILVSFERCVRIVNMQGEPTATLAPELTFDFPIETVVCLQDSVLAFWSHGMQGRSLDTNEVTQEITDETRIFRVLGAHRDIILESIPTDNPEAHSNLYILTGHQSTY
# [26] = biological target: MUSK (human) (UniProt O15146)
# MUSK (human), sequence (O15146 whole entry, looked up): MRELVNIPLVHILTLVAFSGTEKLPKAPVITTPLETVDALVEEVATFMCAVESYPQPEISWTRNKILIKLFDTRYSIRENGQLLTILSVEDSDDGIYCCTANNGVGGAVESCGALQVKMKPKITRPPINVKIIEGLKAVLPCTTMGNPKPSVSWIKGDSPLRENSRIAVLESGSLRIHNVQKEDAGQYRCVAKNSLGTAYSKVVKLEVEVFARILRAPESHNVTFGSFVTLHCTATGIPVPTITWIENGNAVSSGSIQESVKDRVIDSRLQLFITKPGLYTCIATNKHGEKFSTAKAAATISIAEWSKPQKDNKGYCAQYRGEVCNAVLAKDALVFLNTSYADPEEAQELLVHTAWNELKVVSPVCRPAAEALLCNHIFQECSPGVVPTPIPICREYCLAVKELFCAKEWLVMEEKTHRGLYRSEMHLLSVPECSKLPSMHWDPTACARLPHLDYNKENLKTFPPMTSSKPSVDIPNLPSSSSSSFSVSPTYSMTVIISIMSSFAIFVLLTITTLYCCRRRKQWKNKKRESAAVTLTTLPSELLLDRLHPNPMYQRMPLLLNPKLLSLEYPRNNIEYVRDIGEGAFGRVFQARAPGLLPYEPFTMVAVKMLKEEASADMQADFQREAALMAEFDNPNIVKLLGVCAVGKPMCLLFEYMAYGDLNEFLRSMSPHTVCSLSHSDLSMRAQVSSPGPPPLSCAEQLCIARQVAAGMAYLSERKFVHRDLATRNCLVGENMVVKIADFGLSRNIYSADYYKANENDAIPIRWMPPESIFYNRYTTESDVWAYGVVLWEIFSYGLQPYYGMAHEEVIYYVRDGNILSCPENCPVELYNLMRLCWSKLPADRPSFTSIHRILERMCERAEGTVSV
# [27] = biological target: PRKG2 (human) (UniProt Q13237)
# [28] = biological target: TESK1 (human) (UniProt Q15569)
# [29] = system: ABL1 (human), P00519 [M351T]
# [30] = biological target: PTK2B (human) (UniProt Q14289)
# [31] = biological target: FGFR1 (human) (UniProt P11362)
# [32] = biological target: EPHA3 (human) (UniProt P29320)
# [33] = biological target: CDK19 (human) (UniProt Q9BWU1)
# [34] = biological target: ADCK4 (human) (UniProt Q96D53)
# [35] = biological target: DCLK3 (human) (UniProt Q9C098)
# DCLK3 (human), sequence (Q9C098 whole entry, looked up): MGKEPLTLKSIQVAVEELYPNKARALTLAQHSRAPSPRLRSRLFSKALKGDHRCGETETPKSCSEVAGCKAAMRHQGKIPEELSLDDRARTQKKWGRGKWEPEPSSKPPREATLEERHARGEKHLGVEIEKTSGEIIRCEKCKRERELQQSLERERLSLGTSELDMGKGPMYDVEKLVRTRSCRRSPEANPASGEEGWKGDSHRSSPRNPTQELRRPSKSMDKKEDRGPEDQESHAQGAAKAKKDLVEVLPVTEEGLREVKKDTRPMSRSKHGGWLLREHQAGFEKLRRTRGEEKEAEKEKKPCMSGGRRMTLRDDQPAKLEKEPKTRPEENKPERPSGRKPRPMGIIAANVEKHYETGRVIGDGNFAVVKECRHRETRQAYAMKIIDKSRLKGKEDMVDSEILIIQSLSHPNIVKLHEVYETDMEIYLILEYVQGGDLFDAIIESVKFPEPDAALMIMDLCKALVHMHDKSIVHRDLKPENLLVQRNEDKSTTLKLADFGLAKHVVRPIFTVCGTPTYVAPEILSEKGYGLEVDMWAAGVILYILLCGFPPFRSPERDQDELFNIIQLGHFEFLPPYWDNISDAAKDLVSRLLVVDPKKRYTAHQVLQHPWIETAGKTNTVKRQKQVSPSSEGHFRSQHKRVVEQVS
# [36] = biological target: NLK (human) (UniProt Q9UBE8)
# NLK (human), sequence (Q9UBE8 whole entry, looked up): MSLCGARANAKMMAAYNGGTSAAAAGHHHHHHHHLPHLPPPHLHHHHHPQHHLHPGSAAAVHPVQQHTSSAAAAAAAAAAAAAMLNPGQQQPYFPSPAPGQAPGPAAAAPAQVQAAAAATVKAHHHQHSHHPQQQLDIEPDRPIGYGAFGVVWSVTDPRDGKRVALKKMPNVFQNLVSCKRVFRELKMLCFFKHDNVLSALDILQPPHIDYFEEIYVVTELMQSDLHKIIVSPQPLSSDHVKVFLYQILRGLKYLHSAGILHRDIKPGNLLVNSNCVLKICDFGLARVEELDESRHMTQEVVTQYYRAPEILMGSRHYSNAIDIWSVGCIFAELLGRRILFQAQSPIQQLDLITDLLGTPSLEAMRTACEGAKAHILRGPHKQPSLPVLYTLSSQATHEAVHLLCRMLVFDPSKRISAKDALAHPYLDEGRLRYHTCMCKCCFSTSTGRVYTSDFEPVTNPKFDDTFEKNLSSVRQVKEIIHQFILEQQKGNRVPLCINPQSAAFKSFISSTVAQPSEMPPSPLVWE
# [37] = biological target: MAP3K12 (human) (UniProt Q12852)
# [38] = system: KIT (human), P10721 [D816V]
# [39] = biological target: MYLK (human) (UniProt Q15746)
# [40] = biological target: PAK4 (human) (UniProt O96013)
smiles,measurement,setting,value
C=CC(=O)Nc1cc(NC(=O)c2ccc(C)c(NC(=O)c3ccno3)c2)cc(C(F)(F)F)c1,"kinase still bound, per cent of control",[1],75%
same,"kinase still bound, per cent of control",[2],82%
same,"kinase still bound, per cent of control",[3],100%
same,"kinase still bound, per cent of control",[4],100%
same,"kinase still bound, per cent of control",[5],100%
same,"kinase still bound, per cent of control",[6],100%
same,"kinase still bound, per cent of control",[7],89%
same,"kinase still bound, per cent of control",[8],74%
same,"kinase still bound, per cent of control",[9],100%
same,"kinase still bound, per cent of control",[10],77%
same,"kinase still bound, per cent of control",[11],100%
same,"kinase still bound, per cent of control",[12],93%
same,"kinase still bound, per cent of control",[13],97%
same,"kinase still bound, per cent of control",[14],60%
same,"kinase still bound, per cent of control",[15],100%
same,"kinase still bound, per cent of control",[16],100%
same,"kinase still bound, per cent of control",[17],89%
same,"kinase still bound, per cent of control",[18],100%
same,"kinase still bound, per cent of control",[19],100%
same,"kinase still bound, per cent of control",[20],92%
same,"kinase still bound, per cent of control",[21],83%
same,"kinase still bound, per cent of control",[22],98%
same,"kinase still bound, per cent of control",[23],85%
same,"kinase still bound, per cent of control",[24],97%
same,"kinase still bound, per cent of control",[25],100%
same,"kinase still bound, per cent of control",[26],100%
same,"kinase still bound, per cent of control",[27],94%
same,"kinase still bound, per cent of control",[28],100%
same,"kinase still bound, per cent of control",[29],51%
same,"kinase still bound, per cent of control",[30],91%
same,"kinase still bound, per cent of control",[31],100%
same,"kinase still bound, per cent of control",[32],9.8%
same,"kinase still bound, per cent of control",[33],96%
same,"kinase still bound, per cent of control",[34],97%
same,"kinase still bound, per cent of control",[35],100%
same,"kinase still bound, per cent of control",[36],93%
same,"kinase still bound, per cent of control",[37],100%
same,"kinase still bound, per cent of control",[38],78%
same,"kinase still bound, per cent of control",[39],100%
same,"kinase still bound, per cent of control",[40],93%
